{"source": "patent US20150276767A1", "about": "“SYSTEMS AND METHODS FOR IDENTIFYING CANCERS HAVING ACTIVATED PROGESTERONE RECEPTORS” (THE UNIVERSITY OF SYDNEY, priority 2014, published 2015)", "key": {"[1]": {"system": "progestin-regulated genes in T-47D cells", "experiment": "Expression profiling in T-47D cells", "type": "cell-based, human", "description": "(§1) Total RNA was isolated using RNAqueous purification columns (Invitrogen). Total RNA (500 ng) was amplified and biotin labelled using Illumina TotalPrep reagents (Invitrogen). The amplified samples (750 ng) were hybridized to human whole genome HT-12 gene expression bead arrays using the recommended Illumina reagents and following the manufacturer's protocol. Raw data were analysed using Genome Studio software (Illumina). After background subtraction data and cubic spline normalization, differential expression p values were determined using the Illumina custom model of Genome Studio. Data were further analysed using Microsoft Excel and SPSS statistical software. Hierarchical clustering and self organizing map clustering were performed using GenePattern.\n(§2) Onapristone ablated progestin regulation of all but 5 genes in T-47D and 6 genes in HCC1428."}, "[2]": {"system": "progesterone receptor (PR) binding to genomic regions in HCC1428 breast cancer cells", "experiment": "ChIP-PCR of PR binding regions in HCC1428 cells", "type": "cell-based, human", "description": "Cells were cultured to 80% confluency in 15 cm tissue culture dishes, then treated for 45 minutes with 10 nM ORG2058 or vehicle. Chromatin was subsequently cross-linked by the addition of formaldehyde to the culture medium to a final concentration of 1% and incubation for 10 minutes at 37° C. Media were immediately removed and the cells were washed with cold phosphate buffered saline and harvested by scraping. Cells were collected by centrifugation and pellets were lysed 10 minutes at 4° C. in SDS buffer (1% SDS; 10 mM EDTA; 50 mM Tris-HCl, pH 8). The lysates were sonicated at 4° C. with a Branson 450 sonicator, using seven one minute bursts at 40% amplitude and 60% duty, each separated by a rest of at least one minute. Lysates were centrifuged at 13,000×g at 4° C. for 15 minutes to remove debris. […]\nDirected ChIP was performed using the same protocol as described for ChIP-seq. Target templates were quantitated using Platinum Sybr Green reagents (Invitrogen) in a RotorGene 6000 real-time PCR machine. Directed ChIP was carried out as described above and purified gDNA fragments were diluted 2 to 5-fold prior to quantitation by real-time qPCR. […]"}, "[3]": {"system": "progesterone receptor (PR) binding to genomic regions in T-47D breast cancer cells", "experiment": "ChIP-PCR of PR binding regions in T-47D cells", "type": "cell-based, human", "description": "Cells were cultured to 80% confluency in 15 cm tissue culture dishes, then treated for 45 minutes with 10 nM ORG2058 or vehicle. Chromatin was subsequently cross-linked by the addition of formaldehyde to the culture medium to a final concentration of 1% and incubation for 10 minutes at 37° C. Media were immediately removed and the cells were washed with cold phosphate buffered saline and harvested by scraping. Cells were collected by centrifugation and pellets were lysed 10 minutes at 4° C. in SDS buffer (1% SDS; 10 mM EDTA; 50 mM Tris-HCl, pH 8). The lysates were sonicated at 4° C. with a Branson 450 sonicator, using seven one minute bursts at 40% amplitude and 60% duty, each separated by a rest of at least one minute. Lysates were centrifuged at 13,000×g at 4° C. for 15 minutes to remove debris. […] Supernatants were diluted 1:10 with IP buffer (0.5% NP-40; 50 mM Tris, pH 8; 120 mM NaCl; 0.5 mM PMSF; Complete protease inhibitor cocktail, Roche, Ryde, Australia) and pre-cleared by incubation with Dynabeads M-280 sheep anti-mouse IgG magnetic beads (Invitrogen, Mulgrave, Australia), with gentle rotation at 4° C. for at least 2 h to reduce non-specific binding to the secondary antibody beads. Genomic DNA fragments that were bound to PR were isolated by rotation overnight at 4° C. with in-house hPRa6 and hPRa7 mouse monoclonal anti-PR antibodies and fresh sheep anti-mouse IgG magnetic beads (40 ul per 1.4 ml diluted lysate). Beads were washed sequentially with IP buffer, high salt wash buffer (0.5% NP-40, 50 mM Tris, pH 8, 500 mM NaCl, 0.5 mM PMSF), lithium wash buffer (250 mM LiCl, 0.5% NP-40, 1% sodium deoxycholate, 1 mM EDTA, pH 8, 10 mM Tris-HCl, pH 8) and TE (10 mM Tris, pH 8, 1 mM EDTA). Isolated DNA fragments were eluted twice for 15 minutes at room temperature using elution buffer (1% SDS, 0.1M NaHCO3). Cross-links were reversed by addition of 0.25M NaCl and heating to 65° C. for at least 6 h. DNA fragments were purified using Qiagen PCR purification columns (Qiagen, Doncaster, Australia). DNA fragments isolated by PR chromatin immunoprecipitation from ORG2058 treated cells were sequenced on an Illumina GA-IIx sequencer at the Ramaciotti Centre for Gene Function Analysis (University of New South Wales, Australia) and GeneWorks (Hindmarsh, Australia). Input DNA isolated from the pre-cleared ORG2058 treated samples were sequenced as a baseline control. An aliquot of DNA was isolated from the ORG2058-treated, pre-cleared sample, to serve as an input DNA control sample in next-generation sequencing.\nDirected ChIP was performed using the same protocol as described for ChIP-seq. Target templates were quantitated using Platinum Sybr Green reagents (Invitrogen) in a RotorGene 6000 real-time PCR machine. Directed ChIP was carried out as described above and purified gDNA fragments were diluted 2 to 5-fold prior to quantitation by real-time qPCR.\nWe conducted ChIP-PCR in T-47D cells and a second breast cancer cell line HCC1428, with ORG2058, onapristone, their combination or vehicle. The concentrations used were 1 nM ORG2058 and 100 nM onapristone."}, "[4]": {"system": "progestin-regulated genes in HCC1428 cells", "experiment": "Expression profiling in HCC1428 cells", "type": "cell-based, human", "conditions": "onapristone with 1 nM ORG2058", "description": "as §1, §2"}, "PR": {"target": "T1, PR (Homo sapiens, UniProt P06401)", "T1 sequence (P06401 1-933)": "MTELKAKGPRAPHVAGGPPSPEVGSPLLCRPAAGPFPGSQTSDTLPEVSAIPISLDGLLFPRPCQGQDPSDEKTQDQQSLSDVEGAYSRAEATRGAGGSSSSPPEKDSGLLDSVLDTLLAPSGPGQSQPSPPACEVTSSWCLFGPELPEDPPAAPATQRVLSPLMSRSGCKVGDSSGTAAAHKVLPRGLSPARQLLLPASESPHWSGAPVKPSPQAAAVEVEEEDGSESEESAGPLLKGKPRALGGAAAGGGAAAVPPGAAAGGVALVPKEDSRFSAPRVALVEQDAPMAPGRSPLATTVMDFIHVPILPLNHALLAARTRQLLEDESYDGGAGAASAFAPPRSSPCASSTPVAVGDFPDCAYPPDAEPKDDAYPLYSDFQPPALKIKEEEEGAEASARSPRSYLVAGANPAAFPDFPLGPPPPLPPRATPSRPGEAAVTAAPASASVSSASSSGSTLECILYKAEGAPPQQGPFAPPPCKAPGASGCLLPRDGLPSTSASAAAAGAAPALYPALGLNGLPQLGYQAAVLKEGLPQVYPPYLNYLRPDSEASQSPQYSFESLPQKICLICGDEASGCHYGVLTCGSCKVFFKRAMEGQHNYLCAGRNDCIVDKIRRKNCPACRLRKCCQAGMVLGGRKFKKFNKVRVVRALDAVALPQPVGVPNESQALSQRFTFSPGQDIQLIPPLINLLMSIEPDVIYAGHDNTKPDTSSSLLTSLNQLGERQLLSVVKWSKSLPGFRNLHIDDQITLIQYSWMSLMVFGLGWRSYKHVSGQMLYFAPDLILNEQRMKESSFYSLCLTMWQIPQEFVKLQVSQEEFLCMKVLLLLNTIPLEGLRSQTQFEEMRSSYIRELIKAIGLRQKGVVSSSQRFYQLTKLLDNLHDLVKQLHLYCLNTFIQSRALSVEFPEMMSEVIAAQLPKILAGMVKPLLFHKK", "conditions": "relative to the synthetic analogue ORG2058; cited from earlier work"}, "[5]": {"conditions": "1 nM ORG2058, in one or both cell lines (T-47D, HCC1428)"}}, "data": [{"smiles": "CC[C@@H]1C[C@H]2[C@@H]3CCC4=CC(=O)CC[C@@H]4[C@H]3CC[C@]2(C)[C@H]1C(=O)CO", "note": "[ORG2058, (8R,9S,10R,13S,14S,16R,17S)-16-ethyl-17-(2-hydroxyacetyl)-13-methyl-2,6,7,8,9,10,11,12,14,15,16,17-dodecahydro-1H-cyclopenta[a]phenanthren-3-one]", "values": [{"measurement": "Differentially expressed probes", "setting": "[1]; [5]", "result": 309, "unit": "probes"}, {"measurement": "Genes regulated", "setting": "[1]; [5]", "result": 267, "unit": "genes"}, {"measurement": "PR binding regions with binding by ORG2058-liganded PR confirmed", "setting": "[2]; 1 nM ORG2058, ten regions tested", "result": "9 of the 10"}, {"measurement": "ORG effects at the concentration used (preliminary experiments)", "setting": "[3]; 1 nM ORG2058, cell line of preliminary experiments not stated", "result": "maximal"}, {"measurement": "PR binding regions with binding by ORG2058-liganded PR confirmed", "setting": "[3]; T-47D, 1 nM ORG2058, ten regions tested", "result": "9 of the 10"}]}, {"smiles": "CN(C)c1ccc([C@H]2C[C@]3(C)[C@@H](CC[C@]3(O)CCCO)[C@@H]3CCC4=CC(=O)CCC4=C32)cc1", "note": "[onapristone, (8S,11R,13R,14S,17S)-11-[4-(dimethylamino)phenyl]-17-hydroxy-17-(3-hydroxypropyl)-13-methyl-1,2,6,7,8,11,12,14,15,16-decahydrocyclopenta[a]phenanthren-3-one]", "values": [{"measurement": "Genes whose progestin regulation was not ablated by onapristone", "setting": "[1]; T-47D, onapristone with 1 nM ORG2058", "result": 5, "unit": "genes"}, {"measurement": "PR binding regions with attenuation of ORG2058-liganded PR binding by onapristone confirmed", "setting": "[2]; 100 nM onapristone + 1 nM ORG2058, ten regions tested", "result": "9 of the 10 and attenuated"}, {"measurement": "PR binding in the presence of onapristone alone", "setting": "[3]; 100 nM onapristone alone, mainly in T-47D cells", "result": "PR binding to some targets"}, {"measurement": "Effect of onapristone on ORG effects (preliminary experiments)", "setting": "[3]; 100 nM onapristone with 1 nM ORG2058, cell line of preliminary experiments not stated", "result": "ablated"}, {"measurement": "PR binding regions with attenuation of ORG2058-liganded PR binding by onapristone confirmed", "setting": "[3]; T-47D, 100 nM onapristone + 1 nM ORG2058, ten regions tested", "result": "9 of the 10 and attenuated"}, {"measurement": "Genes whose progestin regulation was not ablated by onapristone", "setting": "[4]", "result": 6, "unit": "genes"}]}, {"smiles": "CC(=O)[C@H]1CC[C@H]2[C@@H]3CCC4=CC(=O)CC[C@]4(C)[C@H]3CC[C@]12C", "note": "[progesterone]", "values": [{"measurement": "Dissociation from PR compared with ORG2058", "setting": "PR", "result": "more rapidly"}]}]}
